Source: patent publication US20230172920A1, “DOSING REGIMEN FOR TREATING A DISEASE MODULATED BY CSF-1R” (Novartis AG, priority 2020, published 2023)
Like-named read-outs stand apart in the source and are kept apart here.

Tests used:
[1] = Blood and brain exposure in mice (RD-2019-00100); assay type: in vivo; settings: for Kp at 5 days: read-out: ratio of brain to blood exposures
Procedure: (§1) Several studies were performed to understand PK/PD relationships for CNS microglia clearance in mice. In the first study (RD-2019-00100) mice were treated once daily (qd) for between 1 and 5 consecutive days with a dose of 169 mg/kg BLZ945. Additionally, two dose groups received 169 mg/kg BLZ945 for 5 consecutive days followed by either 3 or 7 days of drug withdrawal (washout). […] Pharmacokinetic analysis was performed on blood and brain samples taken from each group at 3 hours after the final dose on the indicated necropsy day. […] Exposures dropped by more than 1000-fold following the washout period (FIG. 8 B).
(§2) FIG. 8: (A) Microglial depletion in the cortex, as assessed by Iba1/Aif-1 immunohistological staining at necropsy. Sections were analyzed for total number of microglia cell bodies per sample area. Values are group means±SD (n=3). (B) Exposure of BLZ945 in blood and brain 3 hours after the last dose on the day of necropsy. Values are group means (n=3).
(§3) In a follow-up study (RD-2019-00100), mice were treated with BLZ945 for 5 consecutive days with a range of doses from 7 to 169 mg/kg. The two lowest doses of 7 mg/kg and 20 mg/kg were ineffective for microglial depletion. […] Here the ratio of brain to blood exposures was approximately 30% at the four lowest doses and approximately 55% at the highest dose (FIG. 9 B).
(§4) FIG. 9: Dose-dependent reduction of microglia. (A) Mice were treated for 5 consecutive days with BLZ945 at the indicated doses. Samples were analyzed histologically by Iba1/Aif-1 staining and quantified for total microglia cell bodies per sample area. Data are group means±SD (n=3). (B) Exposure of BLZ945 in blood and brain following 5 consecutive days of dosing at multiple doses. Values are group means±SD (n=3).

Soluble TREM2 = Soluble TREM2 in plasma and CSF, 13-wk cynomolgus monkey study (1779034); assay type: in vivo; settings: for TREM2 plasma values: 7 days-on 7 days-off, mid- and high-doses; for decrease of soluble TREM2 in CSF: high dose
Procedure: In a preclinical 13-wk study (Study number 1779034), cynomolgus monkey were treated with 30, 60 and 200 mg/kg/day BLZ945 on daily oral dosing or at 60 and 200 mg/kg/day on 7 days-on and 7 days-off treatment cycles. With either regimen, the dosing period was for 91 days followed by a drug-free period up to a total of […]. Plasma was collected at pre-dose, during the dosing period at different time points and during the recovery time, and CSF was collected at necropsy at end of dosing and recovery periods. Soluble TREM2, a biomarker of microglial activation, was measured in plasma and CSF.

clinical = assay: clinical; set-up: species or system human; settings: in vivo
Procedure: On days that PK samples are obtained, the patient should take BLZ945 during the clinic visit after the pre-dose PK samples and prior to post-dose PK samples, when instructed by the study staff. Patients should take BLZ945 on an empty stomach (i.e. fast from food and drink, except water) at least 1 hour before or 2 hours after a meal. Each dose should be taken with a glass of water. Patients should be instructed to swallow whole capsules and not to chew or open them.
The preliminary pharmacokinetics (PK) of single dose and multiple doses of oral BLZ945 when administered alone and in combination with spartalizumab has been assessed in the ongoing study CBLZ945X2101.

microglia = assay: CNS microglia clearance in mice, Iba1/Aif-1 staining of cortex (RD-2019-00100); assay type: in vivo; settings: for microglial depletion / microglial reduction: 5 consecutive days; for microglia brain repopulation: 169 mg/kg qd 5 days; for microglia depleted in the cortex: 169 mg/kg qd
Procedure: as §1, §2, §3, §4

In the case of `CNC(=O)c1cc(Oc2ccc3nc(N[C@@H]4CCCC[C@H]4O)sc3c2)ccn1` [BLZ945, 4-((2-(((1R,2R)-2-hydroxycyclohexyl)amino)benzo[d]thiazol-6-yl)oxy)-N-methylpicolinamide], the “drop of exposures following washout” value ([1]; 169 mg/kg qd 5 days, then 3 or 7 days washout) was “more than 1000 fold”, the “accumulation with daily dosing (blood and brain exposures)” value ([1]; 169 mg/kg qd, consecutive dosing days) was “lack of accumulation” and the “dose dependence of blood and brain exposures” value ([1]; 7 to 169 mg/kg, 5 consecutive days) was “linear increases in both blood and brain exposures with increased doses”. For the same molecule, the Kp at 3 h ([1]; mouse, brain relative to blood, 169 mg/kg qd, 1-5 days, 3 hours after final dose) was roughly 0.5, the Kp at 5 days ([1]; mouse, brain relative to blood, four lowest doses (7-100 mg/kg), 5 consecutive days) was roughly 0.3 and the Kp at 5 days ([1]; mouse, brain relative to blood, highest dose (169 mg/kg), 5 consecutive days) was roughly 0.55. The TREM2 plasma values (Soluble TREM2; end of off-treatment week) was “in the range of control values at end of off-treatment week”, the TREM2 plasma values (Soluble TREM2; end of on-treatment weeks) was “decreased at end of on-treatment weeks” and the “decrease of soluble TREM2 in CSF” value (Soluble TREM2; continuous dosing 3 months) was “about 25 fold”. The “time for plasma TREM2 to return to baseline after cessation of dosing” value (Soluble TREM2; continuous dosing regimen) was no more than 7 days, the “soluble TREM2 values at end of recovery phase” value (Soluble TREM2; high daily and high on/off treatment groups) was “returned to that of untreated controls” and the “plasma TREM2, remaining” value (Soluble TREM2; mid-continuous (60 mg/kg/day) and high continuous (200 mg/kg/day) daily oral dosing) was 40-45 % of the predose value. For the same molecule, the “decrease of soluble TREM2 in CSF” value (Soluble TREM2; on-off dosing 3 months) was “about 4.6 fold”, the “mean accumulation index (Racc)” value (clinical; human) was 1.07-1.24 and the AUC(0-t) (clinical; human, po, 150 mg) was 102 µg·h/mL. For the same molecule, the Cmax (clinical; human, po, 150 mg) was 6950 ng/mL, the AUC(0-t) (clinical; human, po, 300 mg) was 203 µg·h/mL and the Cmax (clinical; human, po, 300 mg) was 13900 ng/mL. For the same molecule, the AUC(0-t) (clinical; human, po, 600 mg) was 378 µg·h/mL, the Cmax (clinical; human, po, 600 mg) was 24500 ng/mL and the AUC(0-t) (clinical; human, po, 800 mg) was 413 µg·h/mL. For the same molecule, the Cmax (clinical; human, po, 800 mg) was 22700 ng/mL, the AUC(0-t) (clinical; human, po, 1200 mg) was 599 µg·h/mL and the Cmax (clinical; human, po, 1200 mg) was 32700 ng/mL. The absorption (clinical; po) was “rapid absorption”, the microglial depletion (microglia; 7 mg/kg) was “ineffective” and the microglial depletion (microglia; 20 mg/kg) was “ineffective”. The microglial reduction (microglia; 60 mg/kg) was 25%, the microglial reduction (microglia; 100 mg/kg) was 60% and the microglia brain repopulation (microglia; then 3 days washout) was ~80 % of vehicle. For the same molecule, the microglia brain repopulation (microglia; then 7 days washout) was “complete repopulation”, the “microglia depleted in the cortex” value (microglia; day 2) was “approximately 50%” and the “microglia depleted in the cortex” value (microglia; day 5) was “approximately 90%”. The microglial reduction (microglia; 169 mg/kg) was 100%.
